Reference: patent publication US20130053410A1, “SUBSTITUTED HETEROARYL 2',3',7',7A'-TETRAHYDROSPIRO[PYRROLE-3,6'-PYRROLO[1,2-C]IMIDAZOLE]-1',2(1H,5'H)-DIONE” (priority 2011, published 2013)

Target: interaction between p53 and MDM2 proteins (recombinant GST-tagged MDM2, biotinylated p53 peptide) (Homo sapiens, UniProt Q00987)
Experiment: HTRF assay of inhibition of the p53-MDM2 interaction
Type: binding
Conditions: bsa: 0.02%
Description: The ability of the compounds to inhibit the interaction between p53 and MDM2 proteins was measured by an HTRF (homogeneous time-resolved fluorescence) assay in which recombinant GST-tagged MDM2 binds to a peptide that resembles the MDM2-interacting region of p53. Binding of GST-MDM2 protein and p53-peptide (biotinylated on its N-terminal end) is registered by the FRET (fluorescence resonance energy transfer) between Europium (Eu)-labeled anti-GST antibody and streptavidin-conjugated Allophycocyanin (APC).
[…] Add 10 uL diluted compounds (1:5 dilution in reaction buffer) to each well, mix by shaking. Add 20 uL biotinylated p53 peptide (180 nM working solution) in reaction buffer to each well and mix on shaker. Incubate at 37° C. for 1 h. Add 20 uL streptavidin-APC and Eu-anti-GST antibody mixture (6 nM Eu-anti-GST and 60 nM streptavidin-APC working solution) in TBS buffer with 0.2% BSA, shake at room temperature for 30 minutes and read using a TRF-capable plate reader at 665 and 615 nm (Victor 5, Perkin ElmerWallac). If not specified, the reagents were purchased from Sigma Chemical Co.

interaction between p53 and MDM2 proteins (recombinant GST-tagged MDM2, biotinylated p53 peptide), sequence (Q00987 whole entry): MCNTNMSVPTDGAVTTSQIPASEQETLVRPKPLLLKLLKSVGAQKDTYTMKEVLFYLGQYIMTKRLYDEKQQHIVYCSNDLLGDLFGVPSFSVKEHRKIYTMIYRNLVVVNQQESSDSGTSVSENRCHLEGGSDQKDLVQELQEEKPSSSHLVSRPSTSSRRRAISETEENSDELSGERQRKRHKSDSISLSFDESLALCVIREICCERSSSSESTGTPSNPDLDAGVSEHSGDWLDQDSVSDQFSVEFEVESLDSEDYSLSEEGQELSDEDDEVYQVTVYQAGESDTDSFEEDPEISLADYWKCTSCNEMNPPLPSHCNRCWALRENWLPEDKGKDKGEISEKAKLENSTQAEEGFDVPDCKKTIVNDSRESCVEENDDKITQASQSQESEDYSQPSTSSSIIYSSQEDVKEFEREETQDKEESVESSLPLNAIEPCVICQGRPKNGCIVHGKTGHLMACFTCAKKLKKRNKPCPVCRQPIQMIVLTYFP

## COc1cc(C(=O)O)ccc1N1CN2[C@@H](CC(C)(C)C)[C@@]3(C(=O)Nc4cc(C)ncc43)[C@@H](c3cccc(Cl)c3F)[C@@H]2C1=O (racemic) [Example 2, rac-4-((3′R,5S,7S,7aR)-7-(3-chloro-2-fluorophenyl)-6′-methyl-5-neopentyl-1,2′-dioxo-1′,2′,7,7a-tetrahydrospiro[pyrrolo[1,2-c]imidazole-6,3′-pyrrolo[3,2-c]pyridine]-2(1H,3H,5H)-yl)-3-methoxybenzoic acid]
  IC50: 102 nM

## COc1cc(C(=O)O)ccc1N1CN2[C@@H](CC(C)(C)C)[C@@]3(C(=O)Nc4nc(Cl)ccc43)[C@@H](c3cccc(Cl)c3F)[C@@H]2C1=O (racemic) [Example 9, rac-4-((3′R,5S,7S,7aR)-6′-chloro-7-(3-chloro-2-fluorophenyl)-5-neopentyl-1,2′-dioxo-1′,2′,7,7a-tetrahydrospiro[pyrrolo[1,2-c]imidazole-6,3′-pyrrolo[2,3-b]pyridine]-2(1H,3H,5H)-yl)-3-methoxybenzoic acid]
  IC50: 15 nM

## COc1cc(C(N)=O)ccc1N1CN2[C@@H](CC(C)(C)C)[C@@]3(C(=O)Nc4cc(Cl)ncc43)[C@@H](c3cccc(Cl)c3F)[C@@H]2C1=O [Example 1, 4-((3′R,5S,7S,7aR)-6′-chloro-7-(3-chloro-2-fluorophenyl)-5-neopentyl-1,2′-dioxo-1′,2′,7,7a-tetrahydrospiro[pyrrolo[1,2-c]imidazole-6,3′-pyrrolo[3,2-c]pyridine]-2(1H,3H,5H)-yl)-3-methoxybenzamide]
  IC50: 6.8 nM

## COc1cc2c(cn1)[C@@]1(C(=O)N2)[C@H](CC(C)(C)C)N2CN(c3ccc(C(=O)O)cc3OC)C(=O)[C@H]2[C@@H]1c1cccc(Cl)c1F (racemic) [Example 6, rac-4-((3′R,5S,7S,7aR)-7-(3-chloro-2-fluorophenyl)-6′-methoxy-5-neopentyl-1,2′-dioxo-1′,2′,7,7a-tetrahydrospiro[pyrrolo[1,2-c]imidazole-6,3′-pyrrolo[3,2-c]pyridine]-2(1H,3H,5H)-yl)-3-methoxybenzoic acid]
  IC50: 23 nM

## COc1cc(C(N)=O)ccc1N1CN2[C@@H](CC(C)(C)C)[C@@]3(C(=O)Nc4nc(Cl)ccc43)[C@@H](c3cccc(Cl)c3F)[C@@H]2C1=O (racemic) [Example 10, rac-4-((3′R,5S,7S,7aR)-6′-chloro-7-(3-chloro-2-fluorophenyl)-5-neopentyl-1,2′-dioxo-1′,2′,7,7a-tetrahydrospiro[pyrrolo[1,2-c]imidazole-6,3′-pyrrolo[2,3-b]pyridine]-2(1H,3H,5H)-yl)-3-methoxybenzamide]
  IC50: 19.3 nM

## COc1cc2c(cn1)[C@@]1(C(=O)N2)[C@H](CC(C)(C)C)N2CN(c3ccc(C(N)=O)cc3OC)C(=O)[C@H]2[C@@H]1c1cccc(Cl)c1F (racemic) [Example 7, rac-4-((3′R,5S,7S,7aR)-7-(3-chloro-2-fluorophenyl)-6′-methoxy-5-neopentyl-1,2′-dioxo-1′,2′,7,7a-tetrahydrospiro[pyrrolo[1,2-c]imidazole-6,3′-pyrrolo[3,2-c]pyridine]-2(1H,3H,5H)-yl)-3-methoxybenzamide]
  IC50: 15 nM

## COc1cc(C(N)=O)ccc1N1C(=O)[C@H]2[C@H](c3cccc(Cl)c3F)[C@]3(C(=O)Nc4cc(Cl)ncc43)[C@H](CC(C)(C)C)N2[C@@H]1C [Example 11, 4-((3S,3′R,5S,7S,7aR)-6′-chloro-7-(3-chloro-2-fluorophenyl)-3-methyl-5-neopentyl-1,2′-dioxo-1′,2′,7,7a-tetrahydrospiro[pyrrolo[1,2-c]imidazole-6,3′-pyrrolo[3,2-c]pyridine]-2(1H,3H,5H)-yl)-3-methoxybenzamide]
  IC50: 7.5 nM

## COc1cc(C(=O)O)ccc1N1CN2[C@@H](CC(C)(C)C)[C@@]3(C(=O)Nc4ccncc43)[C@@H](c3cccc(Cl)c3F)[C@@H]2C1=O (racemic) [Example 5, rac-4-((3′R,5S,7S,7aR)-7-(3-chloro-2-fluorophenyl)-5-neopentyl-1,2′-dioxo-1′,2′,7,7a-tetrahydrospiro[pyrrolo[1,2-c]imidazole-6,3′-pyrrolo[3,2-c]pyridine]-2(1H,3H,5H)-yl)-3-methoxybenzoic acid]
  IC50: 797 nM

## COc1cc(C(N)=O)ccc1N1CN2[C@@H](CC(C)(C)C)[C@]3(C(=O)Nc4cc(C)ncc43)[C@@H](c3cccc(Cl)c3F)[C@@H]2C1=O (racemic) [Example 3b, rac-4-((3′S,5S,7S,7aR)-7-(3-chloro-2-fluorophenyl)-6′-methyl-5-neopentyl-1,2′-dioxo-1′,2′,7,7a-tetrahydrospiro[pyrrolo[1,2-c]imidazole-6,3′-pyrrolo[3,2-c]pyridine]-2(1H,3H,5H)-yl)-3-methoxybenzamide]
  IC50: 1160 nM

## COc1cc(C(N)=O)ccc1N1C(=O)[C@H]2[C@H](c3cccc(Cl)c3F)[C@]3(C(=O)Nc4cc(Cl)ncc43)[C@H](CC(C)(C)C)N2[C@@H]1CO [Example 13, 4-((3S,3′R,5S,7S,7aR)-6′-chloro-7-(3-chloro-2-fluorophenyl)-3-(hydroxymethyl)-5-neopentyl-1,2′-dioxo-1′,2′,7,7a-tetrahydrospiro[pyrrolo[1,2-c]imidazole-6,3′-pyrrolo[3,2-c]pyridine]-2(1H,3H,5H)-yl)-3-methoxybenzamide]
  IC50: 9.6 nM

## COc1cc(C(=O)O)ccc1N1CN2[C@@H](CC(C)(C)C)[C@@]3(C(=O)Nc4ncccc43)[C@@H](c3cccc(Cl)c3F)[C@@H]2C1=O (racemic) [Example 15, rac-4-((3′R,5S,7S,7aR)-7-(3-chloro-2-fluorophenyl)-5-neopentyl-1,2′-dioxo-1′,2′,7,7a-tetrahydrospiro[pyrrolo[1,2-c]imidazole-6,3′-pyrrolo[2,3-b]pyridine]-2(1H,3H,5H)-yl)-3-methoxybenzoic acid]
  IC50: 96 nM

## COc1cc(C(=O)O)ccc1N1CN2[C@@H](CC(C)(C)C)[C@@]3(C(=O)Nc4cc(C)cnc43)[C@@H](c3cccc(Cl)c3F)[C@@H]2C1=O (racemic) [Example 16, rac-4-((3′S,5S,7S,7aR)-7-(3-chloro-2-fluorophenyl)-6′-methyl-5-neopentyl-1,2′-dioxo-1′,2′,7,7a-tetrahydrospiro[pyrrolo[1,2-c]imidazole-6,3′-pyrrolo[3,2-b]pyridine]-2(1H,3H,5H)-yl)-3-methoxybenzoic acid]
  IC50: 21.8 nM

## COc1cc(C(N)=O)ccc1N1C(=O)[C@H]2[C@H](c3cccc(Cl)c3F)[C@]3(C(=O)Nc4cc(Cl)ncc43)[C@H](CC(C)(C)C)N2[C@@H]1CCC1CCOCC1 [Example 14, 4-((3S,3′R,5S,7S,7aR)-6′-chloro-7-(3-chloro-2-fluorophenyl)-5-neopentyl-1,2′-dioxo-3-(2-(tetrahydro-2H-pyran-4-yl)ethyl)-1′,2′,7,7a-tetrahydrospiro[pyrrolo[1,2-c]imidazole-6,3′-pyrrolo[3,2-c]pyridine]-2(1H,3H,5H)-yl)-3-methoxybenzamide]
  IC50: 7.5 nM

## COc1cc(C(N)=O)ccc1N1CN2[C@@H](CC(C)(C)C)[C@@]3(C(=O)Nc4cc(C)ncc43)[C@@H](c3cccc(Cl)c3F)[C@@H]2C1=O (racemic) [Example 3a, rac-4-((3′R,5S,7S,7aR)-7-(3-chloro-2-fluorophenyl)-6′-methyl-5-neopentyl-1,2′-dioxo-1′,2′,7,7a-tetrahydrospiro[pyrrolo[1,2-c]imidazole-6,3′-pyrrolo[3,2-c]pyridine]-2(1H,3H,5H)-yl)-3-methoxybenzamide]
  IC50: 89.9 nM

## CC[C@@H]1N(c2ccc(C(N)=O)cc2OC)C(=O)[C@H]2[C@H](c3cccc(Cl)c3F)[C@]3(C(=O)Nc4cc(Cl)ncc43)[C@H](CC(C)(C)C)N12 [Example 12, 4-((3S,3′R,5S,7S,7aR)-6′-chloro-7-(3-chloro-2-fluorophenyl)-3-ethyl-5-neopentyl-1,2′-dioxo-1′,2′,7,7a-tetrahydrospiro[pyrrolo[1,2-c]imidazole-6,3′-pyrrolo[3,2-c]pyridine]-2(1H,3H,5H)-yl)-3-methoxybenzamide]
  IC50: 7 nM
